Experimental data published in patent US20100029604A1, “ANTIBACTERIAL COMBINATION AND ITS USE” (priority 2007, published 2010).

Experiments:
[1] = system: Enterobacter cloacae CTX-M9; experiment: MIC, characterised β-lactamase producing strain (Example 5, Table 7); format: cell-based; conditions: CTXM9, combination at constant concentration ratio (2:1)
Excerpt: Their MICs were compared with that of cefotaxime, cefotaxime/tazobactam, ceftazidime, ceftazidime/tazobactam, cefepime, cefepime/tazobactam, and piperacillin/tazobactam.

E. coli SHV-3 = experiment: Synergy MIC, inhibitor at 4 μg/mL (Example 3); format: cell-based; conditions: β-lactamase SHV-3 (Table 3 r9), inhibitor constant 4 μg/mL
Description: (§1) Stock solutions of the test compounds and control antibiotics were prepared in distilled water according to the NCCLS guidelines [Methods for dilution antimicrobial tests for bacteria that grow aerobically. NCCLS document M7-A5; 2000; vol. 19. National Committee for Clinical Laboratory Standards, Villanova, Pa.]. All drug weights were corrected for salt forms and refer to the pure drug substance.
(§2) All tested strains and Clinical isolates were either purchased from the American Type Culture Collection (ATCC), or from the in-house company culture collection.
(§3) Stock cultures were prepared from broth cultures grown at 35° C. for 18-22 h without agitation and subsequent addition of 5% DMSO (v/v, final concentration) as cryoprotectant and stored frozen in liquid nitrogen. Mueller-Hinton II broth (MHBII) (BBL Cockeysville, Md.) was used for the testing procedure.
(§4) The in vitro activities of the antibiotics were determined by the broth microdilution method and agar dilution technique as recommended by CLSI guidelines. The MIC experiments were performed in duplicate in 96-well microtiter plates using MHB. Serial twofold dilutions of each antibiotic either alone or in combination with a constant amount (4 μg/mL) of a β-lactamase inhibitor were prepared in MHBII broth. A sterile pipette tip was used to mix the contents of each well (one tip was used going from the low to the high concentration in the same column). The bacterial suspension with final inoculum 10^5 CFU/mL was transferred to the test medium containing the antibacterial substances by a multipoint inoculator (Dynatech, Chantilly, Va., USA). The plates were then incubated at 35° C. for 24 h.
(§5) Representative compound of Formula (I) was evaluated against the serine-based Class A β-lactamases including TEM-type, SHV-type extended spectrum β-lactamases (ESBL) and various non-ESBL enzymes of enterobacteriaceae as well as BRO-type enzymes of Moraxella catarrhalis and penicillinases of Staphylococcus aureus.

K. oxytoca ESBL = experiment: Synergy MIC, inhibitor at 4 μg/mL (Example 3); format: cell-based; conditions: ESBL (Table 3 r26), inhibitor constant 4 μg/mL
Description: as §1, §2, §3, §4, §5

E. cloacae SHV-12 = experiment: Synergy MIC, inhibitor at 4 μg/mL (Example 3); format: cell-based; conditions: β-lactamase SHV-12 (Table 3 r11), inhibitor constant 4 μg/mL
Description: as §1, §2, §3, §4, §5

E. coli ESBL = experiment: Synergy MIC, inhibitor at 4 μg/mL (Example 3); format: cell-based; conditions: inhibitor constant 4 μg/mL
Description: as §1, §2, §3, §4, §5

C. freundii SHV-5 [2] = experiment: Synergy MIC, inhibitor at 4 μg/mL (Example 3); format: cell-based; conditions: β-lactamase SHV-5 (Table 3 r10), inhibitor constant 4 μg/mL
Description: as §1, §2, §3, §4, §5

C. freundii ESBL = experiment: Synergy MIC, inhibitor at 4 μg/mL (Example 3); format: cell-based; conditions: ESBL (Table 3 r25), inhibitor constant 4 μg/mL
Description: as §1, §2, §3, §4, §5

K. pneumoniae SHV = experiment: Synergy MIC, inhibitor at 4 μg/mL (Example 3); format: cell-based; conditions: β-lactamase SHV, inhibitor constant 4 μg/mL
Description: as §1, §2, §3, §4, §5

S. aureus PC = experiment: Synergy MIC, inhibitor at 4 μg/mL (Example 3); format: cell-based, Staphylococcus aureus; conditions: S. aureus, β-lactamase PC, inhibitor constant 4 μg/mL
Description: as §1, §2, §3, §4, §5

Escherichia coli TEM-30 = experiment: MIC, characterised β-lactamase producing strain (Example 5, Tables 5-7); format: cell-based; conditions: Table 6, LK-157 at constant 4 μg/mL in combination
C. freundii SHV-5 [3] = experiment: Synergy MIC, inhibitor at 4 μg/mL (Example 4); format: cell-based; conditions: SHV-5, class A, inhibitor constant 4 μg/mL
Klebsiella oxytoca LXA-1 = experiment: MIC, characterised β-lactamase producing strain (Example 5, Tables 5-7); format: cell-based; conditions: Klebsiella oxytoca LXA-1, functional group 2b; LK-157 in combination constant 4 μg/mL
Description: The MIC experiments were performed in duplicate in 96-well microtiter plates using CAMHB. Serial twofold dilutions of each antibiotic either alone or in combination with constant concentration ratio of a β-lactamase inhibitor (2:1) were prepared in CAMHB. The bacterial suspension with final inoculum 10^5 CFU/mL was transferred to the test medium containing the antibacterial substances. In each well of a 96-well microtiter plate was combined 50 μL of bacterial inoculum, 50 μL of antibiotic dilutions (or media for determination of the MIC of the antibiotic in the absence of test compound). Each plate included 4 wells with no bacterial inoculum (negative control) and 4 wells with no test compound and no antibiotic (positive control). The plates were incubated at 35° C. for 24 h. Purity check and colony counts on each inoculum suspension was performed to ensure that the final inoculum concentration routinely obtained closely approximates 5×10^5 CFU/mL. In addition the assay is routinely monitored by testing standard antibiotics and ensuring that MIC values are within the recommended ranges for the respective strains.
This test permits comparisons to be made between bacterial growth in the presence of antibiotic alone and bacterial growth in the presence of both an antibiotic and a novel (test) compound.

Question: For `CC(C)(O/N=C(\C(=O)N[C@@H]1C(=O)N2C(C(=O)[O-])=C(C[n+]3ccccc3)CS[C@H]12)c1csc(N)n1)C(=O)O` [ceftazidime], which MIC [1] is on record?
Answer: 0.5 µg/mL

Question: What about the MIC (E. coli SHV-3) of the same molecule?
Answer: 1.6 µg/mL

Question: And the MIC (K. oxytoca ESBL)?
Answer: 0.4 µg/mL

Question: What about the MIC (E. cloacae SHV-12) of the same molecule?
Answer: > 25.6 µg/mL

Question: What about the MIC (E. coli ESBL; first listed (Table 3 r21)) of the same molecule?
Answer: 1.6 µg/mL

Question: What about the MIC (E. coli ESBL; fourth listed (Table 3 r24)) of the same molecule?
Answer: > 25.6 µg/mL

Question: And the MIC (E. coli ESBL; second listed (Table 3 r22))?
Answer: 0.4 µg/mL

Question: What about the MIC (E. coli ESBL; third listed (Table 3 r23)) of the same molecule?
Answer: 0.2 µg/mL

Question: And the MIC (C. freundii SHV-5 [2])?
Answer: > 25.6 µg/mL

Question: What about the MIC (C. freundii ESBL) of the same molecule?
Answer: > 25.6 µg/mL

Question: What about the MIC (K. pneumoniae SHV; first listed (Table 3 r12)) of the same molecule?
Answer: > 25.6 µg/mL

Question: And the MIC (K. pneumoniae SHV; second listed (Table 3 r13))?
Answer: 12.8 µg/mL

Question: And the MIC (S. aureus PC; first listed (Table 3 r19))?
Answer: 12.8 µg/mL

Question: What about the MIC (S. aureus PC; second listed (Table 3 r20)) of the same molecule?
Answer: 25.6 µg/mL

Question: Which results are given for `CO/N=C(\C(=O)N[C@@H]1C(=O)N2C(C(=O)O)=C(COC(C)=O)CS[C@H]12)c1csc(N)n1` [cefotaxime]?
Answer: MIC (Escherichia coli TEM-30): 0.031 µg/mL; MIC (C. freundii SHV-5 [3]): 25.6 µg/mL

Question: How did the MIC (Klebsiella oxytoca LXA-1) turn out when `CO/N=C(\C(=O)N[C@@H]1C(=O)N2C(C(=O)[O-])=C(C[N+]3(C)CCCC3)CS[C@H]12)c1csc(N)n1` [cefepime] was run?
Answer: 0.125 µg/mL
